Counter-ions that a name gives are not always drawn.
System: MTT (mouse pheochromocytoma)
Assay: IC50 of cell viability (ATP content)
Conditions: (24 or 48 h)
Procedure, shortened: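 Each well of a white 1536-well plate received 5 µl of MTT mouse pheochromocytoma cells at 200,000 cells/ml in DMEM containing 5% FBS and 1% horse serum. After overnight culture at 37°C, 5% CO2, cells were exposed for 24 or 48 hrs to 23 nl of library compound in DMSO, pinned at 8 final concentrations from 0.5 nM to 46 µM. CellTiter-Glo luminescence was read after 15 minutes, and IC50 was obtained from a four-parameter logistic fit of signals normalised to positive-control and DMSO wells.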

Row | Compound | IC50 of cell viability
1 | N[C@@H]1CONC1=O [D-cycloserine] | > 46 µM
2 | CCNC(=O)NCCCOc1cccc(CN2CCCCC2)c1 [DALCOTIDINE] | > 46 µM
3 | O=C(O)Cc1ccc(CCN[S+](=O)([O-])c2ccc(Cl)cc2)cc1 [DALTROBANUM] | > 46 µM
4 | O=C1CN(/N=C/c2ccc(-c3ccc([N+](=O)[O-])cc3)o2)C(=O)N1 [DANTROLENE] | > 46 µM
5 | NC(=O)C(c1ccccc1)(c1ccccc1)[C@@H]1CCN(CCc2ccc3c(c2)CCO3)C1 [DARIFENACIN HYDROBROMIDE] | > 46 µM
6 | CC(C)CN(C[C@@H](O)[C@H](Cc1ccccc1)NC(=O)O[C@@H]1CO[C@H]2OCC[C@H]21)[S+](=O)([O-])c1ccc(N)cc1 [DARUNAVIR ETHANOLATE] | > 46 µM
7 | Cc1nc(Nc2ncc(C(=O)Nc3c(C)cccc3Cl)s2)cc(N2CCN(CCO)CC2)n1 [DASATINIB] | > 46 µM
8 | O=C(O)c1ccc(OCCn2ccnc2)cc1 [DAZOXIBENUM] | > 46 µM
9 | O=C([O][Na])C(Cl)Cl [DCA] | > 46 µM
10 | CC(=O)N[C@@H](CCC(=O)O)C(=O)O [DEANOLI ACEGLUMAS] | > 46 µM
11 | C[N+](C)(C)CCCCCCCCCC[N+](C)(C)C [DECAMETHONIUM] | > 46 µM
12 | CCCCCCCCCC(=O)NO [DECANOHYDROXAMIC ACID] | > 46 µM
13 | CCCCCCCCCCOc1cc2c(O)c(C(=O)OCC)cnc2cc1OCC [DECOQUINATE] | > 46 µM
14 | CCCCCCCC/C=C\CCCCCCCCN [DECTAFLURUM] | > 46 µM
15 | O=C(O)c1ccc(-n2nc(-c3ccccc3O)nc2-c2ccccc2O)cc1 [DEFERASIROX] | > 46 µM
16 | CC1C(=O)C(=O)C=CN1C (stereo not drawn) [DEFERIPRONE] | > 46 µM
17 | C=C1N[C@]2(C(=O)COC(C)=O)[C@@H](C[C@H]3[C@@H]4CCC5=CC(=O)C=C[C@]5(C)[C@H]4[C@@H](O)C[C@@]32C)O1 [DEFLAZACORT] | > 46 µM
18 | CC(CCC(=O)O)C1CCC2C3C(=O)C[C@@H]4CC(=O)CC[C@@]4(C)C3CC(=O)[C@]12C (stereo partly drawn) [DEHYDROCHOLIC ACID] | > 46 µM
19 | CCOC(=O)[C@H](CCc1ccccc1)N[C@@H](C)C(=O)N(CC(=O)O)C1Cc2ccccc2C1 [DELAPRIL HYDROCHLORIDE] | > 46 µM
20 | CC(C)Nc1cccnc1N1CCN(C(=O)c2cc3cc(N[S+](C)(=O)[O-])ccc3[nH]2)CC1 [DELAVIRDINE MESYLATE] | > 46 µM

Row | Compound | IC50 of cell viability
21 | Cc1cc(O)cc2c1O[C@](C)(CCC[C@H](C)CCC[C@H](C)CCCC(C)C)CC2 [DELTA-TOCOPHEROL, D-] | > 46 µM
22 | COc1ccc(-c2cc(C(F)F)nn2-c2ccc([S+](N)(=O)[O-])cc2)cc1F [DERACOXIB] | > 46 µM
23 | CC1OC(OC2CCC3(C)C(CCC4C3CC(O)C3(C)C(C5=CC(=O)OC5)CCC43O)C2)CC(O)C1OC1CC(O)C(OC2CC(O)C(OC3OC(CO)C(O)C(O)C3O)C(C)O2)C(C)O1 (stereo not drawn) [DESLANOSIDE] | > 46 µM
24 | CC(=O)O.N=C(N)NCCCC(NC(=O)C1CCCN1C(=O)C1CSSCCC(=O)NC(Cc2ccc(O)cc2)C(=O)NC(Cc2ccccc2)C(=O)NC(CCC(N)=O)C(=O)NC(CC(N)=O)C(=O)N1)C(=O)NCC(N)=O.O.O.O (stereo not drawn) [DESMOPRESSIN ACETATE] | > 46 µM
25 | CC(=O)O.N=C(N)NCCCC(NC(=O)C1CCCN1C(=O)C1CSSCCC(=O)NC(Cc2ccc(O)cc2)C(=O)NC(Cc2ccccc2)C(=O)NC(CCC(N)=O)C(=O)NC(CC(N)=O)C(=O)N1)C(=O)NCC(N)=O.O.O.O (stereo not drawn) [DESMOPRESSIN] | > 46 µM
26 | C#C[C@]1(O)CC[C@H]2[C@@H]3CCC4=CCCC[C@@H]4[C@H]3C(=C)C[C@@]21CC [DESOGESTREL] | > 46 µM
27 | CC1(C)O[C@@H]2C[C@H]3[C@@H]4CC\C5=C\C(=O)\C=C/[C@]5(C)[C@H]4C(O)C[C@]3(C)[C@@]2(O1)C(=O)CO (stereo partly drawn) [DESONIDE] | > 46 µM
28 | CC(=O)OCC(=O)[C@H]1CC[C@H]2[C@@H]3CCC/4=C/C(=O)CC[C@]4(C)[C@H]3CC[C@]12C [DESOXYCORTICOSTERONE ACETATE] | > 46 µM
29 | CC(C)(C)C(=O)OCC(=O)C1CCC2C3CCC4=CC(=O)CCC4(C)C3CCC12C (stereo not drawn) [DESOXYCORTICOSTERONE PIVALATE] | > 46 µM
30 | CN1C(=O)[C@@H](NC(=O)c2cc3ccccc3[nH]2)N=C(c2ccccc2)c2ccccc21 [DEVAZEPIDUM] | > 46 µM
31 | C[C@@H]1CC2C3CCC4=CC(=O)C=C[C@]4(C)[C@@]3(F)[C@@H](O)C[C@]2(C)[C@@]1(O)C(=O)COC(=O)c1cccc(S(=O)(=O)[O-])c1 (stereo partly drawn) [DEXAMETHASONE METASULFOBENZOATE SODIUM] | > 46 µM
32 | [Na+].[Na+].CC1CC2C3CCC/4=C/C(=O)/C=C\[C@@]4(C)[C@]3(F)C(O)C[C@]2(C)[C@]1(O)C(=O)CO[P]([O-])([O-])=O (stereo partly drawn) [DEXAMETHASONE SODIUM PHOSPHATE] | > 46 µM
33 | CCCCC(=O)O[C@]1(C(=O)CO)[C@H](C)C[C@H]2[C@@H]3CCC4=CC(=O)C=C[C@]4(C)[C@@]3(F)[C@@H](O)C[C@@]21C [DEXAMETHASONE VALERATE] | > 46 µM
34 | CCNC(C)Cc1cccc(C(F)(F)F)c1 (stereo not drawn) [DEXFENFLURAMINE] | > 46 µM
35 | CC(C)NCC(O)c1ccc(N[S+](C)(=O)[O-])cc1.Cl (stereo not drawn) [DEXSOTALOLUM] | > 46 µM
36 | CC(=O)Oc1cccc2c1C(=O)c1c(OC(C)=O)cc(C(=O)O)cc1C2=O [DIACERIN] | > 46 µM
37 | C=CCSSSCC=C [DIALLYL TRISULFIDE] | > 46 µM
38 | C[N@H+]1CC[C@@]23C4OC5=C2C(=CC=C5OC(C)=O)C[C@H]1[C@@H]3\C=C/[C@@H]4OC(C)=O (stereo partly drawn) [DIAMORPHINE HYDROCHLORIDE] | > 46 µM
39 | COc1ccc(Cc2cnc(N)nc2N)cc1OC [DIAVERIDINUM] | > 46 µM
40 | C\C1=N\C2=C(C=C(Cl)C=C2)[S+]([O-])(=O)N1 [DIAZOXIDE] | > 46 µM

Row | Compound | IC50 of cell viability
41 | NCC1CCC(N)C(O[C@@H]2C(O)[C@H](O[C@H]3OC(CO)C(O)C(N)C3O)[C@@H](N)C[C@H]2N)O1.O=[S+]([O-])(O)O (stereo partly drawn) [DIBEKACIN] | > 46 µM
42 | c1ccc2c(c1)sc1ccccc12 [DIBENZOTHIOPHENE] | > 46 µM
43 | CC(C)(C)c1ccc2c(S(=O)(=O)[O-])c(C(C)(C)C)ccc2c1 [DIBUNATE SODIUM] | > 46 µM
44 | CCCCCCCCCCCC(=O)[O][Sn]([CH2]CCC)([CH2]CCC)[O]C(=O)CCCCCCCCCCC [DIBUTYLTIN DILAURATE] | > 46 µM
45 | Cc1ccc2c(c1)[C@@H]1CN(C)CC[C@H]1N2 [DICARBINUM] | > 46 µM
46 | OCc1ccc(Cl)cc1Cl [DICHLOROBENZYL ALCOHOL] | > 46 µM
47 | ClC1=CC=C(C=C1)C(C#N)C2=C(Cl)C=C(C=C2Cl)N3\N=C/C(=O)NC3=O (stereo not drawn) [DICLAZURIL] | > 46 µM
48 | O=C([O-])Cc1ccccc1Nc1c(Cl)cccc1Cl.[Na+] [DICLOFENAC SODIUM] | > 46 µM
49 | COc1ccc(/C=C/C(=O)O)cc1 [DIETHANOLAMINE METHOXYCINNAMATE] | > 46 µM
50 | CCN(CC)C(C)C(=O)c1ccccc1 (stereo not drawn) [DIETHYLPROPION HYDROCHLORIDE] | > 46 µM
51 | CC/C(=C(/CC)c1ccc(OP(=O)(O)O)cc1)c1ccc(OP(=O)(O)O)cc1 [DIETHYLSTILBESTROL DIPHOSPHATE] | > 46 µM
52 | CCN(CC)C(=O)c1cccc(C)c1 [DIETHYLTOLUAMIDE] | > 46 µM
53 | CC(C(O)c1ccccc1)N(C)CCOC(c1ccccc1)c1ccccc1 (stereo not drawn) [DIFETEROL HYDROCHLORIDE] | > 46 µM
54 | CN1CCN(c2cc3c(cc2F)c(=O)c(C(=O)O)cn3-c2ccc(F)cc2)CC1 [DIFLOXACIN HYDROCHLORIDE] | > 46 µM
55 | CCCCC(=O)OCC(=O)[C@H]1[C@H](C)C[C@@H]2[C@@H]3C[C@@H](F)C4=CC(=O)C=C[C@]4(C)[C@@]3(F)[C@@H](O)C[C@@]21C [DIFLUCORTOLONE VALERATE] | > 46 µM
56 | CCCC(=O)O[C@@]1(CC[C@H]2C3C[C@H](F)\C4=C\C(=O)\C=C/C4(C)[C@@]3(F)[C@@H](O)CC12C)C(=O)COC(C)=O (stereo partly drawn) [DIFLUPREDNATE] | > 46 µM
57 | NNc1nnc(NN)c2ccccc12 [DIHYDRALAZINUM] | > 46 µM
58 | CN1C[C@H](C(=O)N[C@]2(C)O[C@@]3(O)[C@@H]4CCCN4C(=O)[C@H](Cc4ccccc4)N3C2=O)C[C@@H]2c3cccc4[nH]cc(c34)C[C@H]21 [DIHYDROERGOTAMINE] | > 46 µM

Source: the supplement of paper PMC3974653
